# According to patent US20240002379A1, “ASYMMETRIC CONJUGATE COMPOUNDS” (Pheon Therapeutics Ltd., priority 2016, published 2024):
# Where two headings read alike, the source gives them in different places.
# Legend:
# [1] = tested on: FaDu (head and neck cancer) cell line; assay: MTT cytotoxicity assay, FaDu; type: cell-based; conditions: Homo sapiens, MTT assay, 72 hour incubation
# Experimental: (§1) Tumor cell lines were maintained in RPMI1640 medium supplemented with 10% heat-inactivated fetal bovine serum, 2 mM L-glutamine and 1 mM sodium pyruvate. 1800 cells per well were seeded in a volume of 180 μl in a 96-well flat bottom polystyrene plate. The cells were allowed to adhere overnight at 37° C. in a CO2 incubator. Ligands were initially formulated in DMSO, and stocks stored at −80° C. They were then further formulated at lox concentration in RPMI1640 medium. 20 ul of diluted samples were added into each treatment well. On each plate, blank wells with no cells, and untreated wells containing cells, were included. Plates were then cultured at 37° C. in a CO2 incubator for 72 hrs. Cytotoxicity was evaluated using a tetrazolium salt-based assay, the MTT assay. After 72 hours, the supernatant was removed from each well and 200 μl of a sterile filtered 500 μg/ml MTT solution in water added to each well. The plates were then incubated at 37° C. in a CO2 incubator for 4 hrs. The supernatant was then removed and the formazan crystals formed solubilized by adding 150 μl of DMSO to each well. The plate was then read on a plate reader at 540 nm, and percentage cell survival calculated as follows: ((mean absorbance treated wells at concentration x−mean absorbance blank wells)[…](mean absorbance untreated wells at concentration x−mean absorbance blank wells))×100. Data were plotted as concentration in nM vs. % cell survival in Microsoft Excel, and IC50 values (concentration where cell survival is reduced by a half) were determined from the graph.
# PC3 (prostate) cell line = assay: MTT cytotoxicity assay, PC3; type: cell-based; conditions: MTT assay, 72 hour incubation, read-out: Cytotoxicity PC3 (nM, 72 hour)
# Experimental: as §1
# [2] = tested on: linear double-stranded HexARev DNA fragment; assay: DNA cleavage assay, HexARev fragment; type: biochemical; conditions: ligand concentration 10 μM and 100 nM (FIG. 16)
# Experimental: The ability of a further series of compounds 13, 42, 59, 99 and the PBD dimer Talirine to cross-link DNA was determined using an assay involving a linear double-stranded HexARev fragment (FIG. 15).
# The ability of 13 and of a series of compounds to cleave double-stranded DNA was investigated using a modification of the previously established DNA footprinting assay (34). Following an overnight incubation of the ligand-DNA complexes, the mixture was mixed with strand separation buffer containing 10 mM EDTA, 10 mM NaOH, 0.1% bromophenol blue, 80% formamide and incubated at 100° C. for 3 min. The mixture was then immediately cooled on ice and run on an 8% denaturing gel. […] Using the GA marker, these additional bands were identified as cleavage products produced by 13 at certain A sites of the DNA fragment.
# The preparation of the TyrT DNA fragment (FIG. 8) and HexARev DNA fragment (FIG. 15) have been previously described (34). Briefly, the sequence which had been cloned into the BamHI site of pUC18 was obtained by cutting with HindIII and EcoRI. Radiolabelled DNA fragments were prepared by filling in the 3′-end of the HindIII site with [α-^32P]dATP using Klenow DNA polymerase (exo-).
# The radiolabelled DNA fragment was separated from the remainder of the plasmid DNA on a 6% non-denaturing polyacrylamide gel. The gel (20 cm long, 0.3 mm thick) was run at 400 V in 1×TBE running buffer for about 1-2 h, until the bromophenol blue had run most of the way down the gel. The glass plates were separated and the position of the labelled DNA fragment was established by short (1 min) exposure to an X-ray film. The relevant band was then cut from the gel and the radiolabelled DNA eluted by adding 300 μL 10 mM Tris-HCl, pH 7.5 containing 0.1 mM EDTA and gently agitating overnight at room temperature. The eluted DNA was finally precipitated with ethanol and re-suspended in a suitable volume of 10 mM Tris-HCl, pH 7.5 containing 0.1 mM EDTA buffer so as to give at least 10 counts per second/μL on a hand-held Geiger counter. With fresh plasmid and α-^32P-dATP this process typically generated about 150 μL of radiolabelled fragment DNA. The absolute concentration of the DNA is not important, and it is typically lower than 10 nM.
# Compounds such as 13 were synthesised as described above and the PBD dimer Talirine was obtained from Aurum Pharmatech LLC. Stock solution was prepared by dissolving the ligands in DMSO to give a concentration of 10 mM. From this stock solution, working solutions of the desired concentration were prepared by diluting with 10 mM Tris-HCl, pH 7.5 containing 10 mM NaCl.
# Radiolabelled DNA (1.5 μL) was mixed with 1.5 μL ligand solution of various concentrations (10 μM-10 nM) and incubated overnight at 37° C.
# Labelled DNA (1.5 μL) was mixed with 20 μL sterile water and 5 μL of denaturing loading solution (80% formamide containing 10 mM EDTA, 10 mM NaOH, 0.01% bromophenol blue). The sample was then incubated at 100° C. for 20 min with the micro-centrifuge tube cap open to allow evaporation.
# Loading solution (4.5 μL) was added to samples from Section 2.1. The digestion products were boiled for 3 min at 100° C. and quickly cooled on ice prior to electrophoresis. Separation was performed on an 8% denaturing polyacrylamide gel (40 cm long, 0.3 mm thick) at 1500V for about 2 h until the dye reached the bottom of the gel. […]
Compound,IC50 ([1]; read-out: IC50 value in FaDu),IC50 (PC3 (prostate) cell line),cleavage of HexARev DNA fragment [2],"IC50 ([1]; read-out: Cytotoxicity FaDu (nM, 72 hour))"
"COc1cc2c(cc1OCc1cccc(CC(=O)N3C[C@@H](CCl)c4c3cc(O)c3ccccc43)c1)N=C[C@@H]1CCCCN1C2=O [Compound 42, (S)-3-((3-(2-((S)-1-(Chloromethyl)-5-hydroxy-1,2-dihydro-3H-benzo[e]indol-3-yl)-2-oxoethyl)benzyl)oxy)-2-methoxy-7,8,9,10-tetrahydrobenzo[e]pyrido[1,2-a][1,4]diazepin-12(6aH)-one]",0.01 nM,0.03 nM,cleave DNA,–
"COc1cc2c(cc1OCCCC(=O)N1C[C@@H](CCl)c3c1cc(O)c1ccccc31)N=C[C@@H]1CCCCN1C2=O [Compound 13, (S)-3-(4-((S)-1-(Chloromethyl)-5-hydroxy-1,2-dihydro-3H-benzo[e]indol-3-yl)-4-oxobutoxy)-2-methoxy-7,8,9,10-tetrahydrobenzo[e]-pyrido[1,2-a][1,4]diazepin-12(6aH)-one]",–,1.43 nM,cleave DNA,1.17 nM
